Laboratory results from patent US8426559B2, “Injectable β-hairpin peptide hydrogel that kills methicillin-resistant Staphylococcus aureus” (University of Delaware, priority 2009, dated 2013).
Non-standard residues stand in square brackets, D forms with d. Residues, ends and D or L forms follow the SMILES beside them.

What was measured:
[1] = test system: MSSA (methicillin-susceptible Staphylococcus aureus, ATCC 25923); assay: Antibacterial assay: bacteria introduced onto hydrogel-coated TCTP surface, proliferation by OD625nm; assay type: cell-based; conditions: 2 wt % hydrogel on TCTP, all bacterial cell loading densities, 24 h, compared to uncoated surface
Procedure: (§1) The antibacterial activity of MARG1 hydrogels was assessed via two distinct assays. In the first assay, bacteria were introduced to the surface of tissue culture treated polystyrene (TCTP) coated with a ˜1-2 mm layer of the gel and its ability to inhibit bacterial proliferation was assessed. This assay measures the ability of MARG1 gels to thwart new infection at a particular site. Here, gels were formed directly on the polystyrene surface without the aid of shear-thin delivery. In the second assay, MARG1 gels were shear-thin delivered via syringe to agar surfaces infected with bacteria, and the ability of the gel to kill bacteria on contact was measured. This assay simulates the introduction of the MARG1 gel via syringe to a bacterial contaminated surface, such as a wound.
Hydrogels for the antibacterial assays were prepared in separate wells of 96-well tissue culture-treated polystyrene plates (Costar 3595). […]
(§2) For each assay, 100 μL of bacteria-free TSB was introduced onto the surface of the hydrogels. […] After this, bacterial growth was monitored by measuring OD625nm of the liquid above the gel by adding 100 μL of bacteria-free TSB to the surfaces, gently mixing and transferring the supernatant to a cuvette. Corrected OD625nm values were calculated to correct for dilution and to normalize for scattering that occurs for each individual bacterial strain. […]

[2] = test system: MRSA (methicillin-resistant Staphylococcus aureus, ATCC 33591); assay: as above; assay type: cell-based; conditions: 2 wt % hydrogel on TCTP, 24 hr at 37° C.
Procedure: as §1, with “This assay simulates the introduction of the MARG1 gel via syringe to a bacterial contaminated surface, such as a wound.” left out
The gels were incubated for 24 hr at 37° C., and bacterial proliferation was quantitated by light scattering as described in Salick, D. A.; Kretsinger, J. K.; Pochan, D. J.; Schneider, J. P. J. Am. […]
as §2

[3] = test system: C3H10t1/2 mesenchymal stem cells; assay: Cytotoxicity of hydrogel towards mammalian cells, live/dead viability assay; assay type: cell-based, murine
Procedure: The confocal images show live/dead viability assays performed using murine C3H10t1/2 mesenchymal stem cells that had been cultured for 24 h on (A) a 2 wt % MARG1 hydrogel surface and on (B) a TCTP control surface. This cell line was chosen because these cells are sensitive to their environment and thus good indicators of a material's cytotoxic properties.
The images in FIGS. 5A,B are rendered in black and white, where the light areas represent cells that fluoresce green (live cells) and dark areas represent cells that fluoresce red (dead cells).
C3H10t1/2 mesenchymal stem cells (ATCC # CCL-226) were cultured using Dulbecco's Modified Eagle's Medium (DMEM, Sigma Aldrich, D6546) supplemented with 10% Fetal Bovine Serum, 5 mM L-Glutamine, 50 μg/mL Gentamicin at 37° C. in 5% CO2. Cells were cultured in T75 cell culture flasks. Cells were kept in culture for seven passages and used for cellular viability on passage number 7. For cell plating, cells were trypsinized and counted using a hemacytometer. The resultant cell suspension was introduced to the hydrogel and control surfaces such that a cell loading density of 30,000 cells/cm^2 was achieved. These samples were incubated for 24 hours at 37° C., 5% CO2. […]

Molecule | MSSA proliferation on hydrogel-coated surface (OD) [1] | MRSA proliferation on hydrogel-coated surface (OD) ([2]; challenged with 2×10^8 CFU/dm^2 MRSA) | MRSA proliferation on hydrogel-coated surface (OD) ([2]; lower CFUs of MRSA) | Cytotoxicity towards mammalian cells ([3]; C3H10t1/2 cells cultured 24 h on 2 wt % hydrogel surface) | Viability of cells cultured on hydrogel surface versus TCTP control ([3]; C3H10t1/2 cells, 24 h, 2 wt % hydrogel surface)
VKVKVKVKV^DPPTKVKVKVKV-NH2 [MAX1] | can inhibit bacterial proliferation | uninhibited MRSA proliferation | inhibiting MRSA at lower CFUs | – | –
CC(C)[C@H](N)C(=O)N[C@@H](CCCCN)C(=O)N[C@H](C(=O)N[C@@H](CCCCN)C(=O)N[C@H](C(=O)N[C@@H](CCCNC(=N)N)C(=O)N[C@H](C(=O)N[C@@H](CCCCN)C(=O)N[C@H](C(=O)N1CCC[C@@H]1C(=O)N1CCC[C@H]1C(=O)N[C@H](C(=O)N[C@@H](CCCCN)C(=O)N[C@H](C(=O)N[C@@H](CCCCN)C(=O)N[C@H](C(=O)N[C@@H](CCCNC(=N)N)C(=O)N[C@H](C(=O)N[C@@H](CCCCN)C(=O)N[C@H](C(N)=O)C(C)C)C(C)C)C(C)C)C(C)C)[C@@H](C)O)C(C)C)C(C)C)C(C)C)C(C)C [MARG1, VKVKVRVKV^DPPTKVKVRVKV-NH2] (H-VKVKVRVKV[dP]PTKVKVRVKV-NH2) | – | – | – | non-cytotoxic | no significant difference
